This data set in a line: Oral absorption of encapsulated DMSO-bound heparin-DOCA in monkeys (FIG. 5). To be noted: in buffer, 100 mg/kg (control). The class given is in vivo. As for the experimental part:
DMSO-bound heparin-DOCA prepared according to the method of Example 1 was encapsulated and then administered orally to monkeys at either 5 mg/kg or 10 mg/kg dosages. As a control, heparin in buffer was orally administered at 100 mg/kg.

The source of these data is patent publication US20070021325A1, “Drug formulation containing a solubilizer for enhancing solubility, absorption, and permeability” (Mediplex Corporation, priority 2005, published 2007).

heparin: the “absorption after oral administration” value was “negligible”.
